IC50 data for 22 molecules are collected here from ChEMBL document CHEMBL1147695, “Synthesis and in vitro evaluation of N-substituted aza-trozamicol analogs as vesicular acetylcholine transporter ligands” (Bioorg Med Chem Lett, 2006).

Bounds are passed on as bounds.

One may read the IC50 as the concentration that gives 50% inhibition. Higher therefore signals weaker potency.

The target of this assay is T1, Vesicular acetylcholine transporter (Homo sapiens, UniProt Q16572).
T1 sequence (Q16572 whole entry): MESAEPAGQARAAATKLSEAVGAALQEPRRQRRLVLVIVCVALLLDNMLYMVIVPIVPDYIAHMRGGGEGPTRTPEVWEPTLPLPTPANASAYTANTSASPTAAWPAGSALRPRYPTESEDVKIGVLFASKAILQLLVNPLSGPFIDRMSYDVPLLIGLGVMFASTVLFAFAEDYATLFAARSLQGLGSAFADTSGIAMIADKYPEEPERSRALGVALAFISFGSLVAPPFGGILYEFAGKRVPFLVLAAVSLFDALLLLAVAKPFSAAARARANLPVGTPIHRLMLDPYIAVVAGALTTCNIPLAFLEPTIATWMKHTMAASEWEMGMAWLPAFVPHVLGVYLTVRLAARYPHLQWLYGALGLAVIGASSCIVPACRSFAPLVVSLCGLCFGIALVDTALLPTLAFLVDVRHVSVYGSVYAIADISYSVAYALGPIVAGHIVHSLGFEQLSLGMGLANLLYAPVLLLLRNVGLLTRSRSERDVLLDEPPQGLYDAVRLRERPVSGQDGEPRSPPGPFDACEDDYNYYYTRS
The assay can be described thus: Displacement of [3H]vesamicol from human VAChT transfected in PC12 cell line. The assay is classed as cell-based, PC-12.
As for `C/C=C/CN1CCC(O)C(N2CCN(c3ccccc3)CC2)C1` (configuration not stated), the IC50 was > 100 nM.
For the molecule `C#CCN1CCC(O)C(N2CCN(c3ccccc3)CC2)C1` (configuration not stated), the IC50 is > 100 nM.
Then `C=CCN1CCC(N2CCN(c3ccccc3)CC2)C(O)C1` (configuration not stated), with > 100 nM.
With `C=C(C)CN1CCC(N2CCN(c3ccccc3)CC2)C(O)C1` (configuration not stated), the IC50 is > 100 nM.
Then `C=CCN1CCC(O)C(N2CCN(c3ccccc3)CC2)C1` (configuration not stated), with > 100 nM; and `OC1CCN(Cc2ccccc2Br)CC1N1CCN(c2ccccc2)CC1` (configuration not stated), with 47 nM.
Then `OC1CCN(C/C=C/I)CC1N1CCN(c2ccccc2)CC1` (configuration not stated), with > 100 nM.
As to `CCN1CCC(O)C(N2CCN(c3ccccc3)CC2)C1` (configuration not stated), the IC50 was > 1000 nM.
`OC1CN(Cc2ccccc2Br)CCC1N1CCN(c2ccccc2)CC1` (configuration not stated) displayed an IC50 of 11 nM.
Turning to `OC1CCN(Cc2cccc(Br)c2)CC1N1CCN(c2ccccc2)CC1` (configuration not stated), the IC50 was 46 nM.
The molecule `OC1CN(Cc2cccc(Br)c2)CCC1N1CCN(c2ccccc2)CC1` (configuration not stated) had a half-inhibitory concentration (IC50) of 66 nM. This IC50 and that of the molecule before are within 1.5-fold of each other.
For `C#CCN1CCC(N2CCN(c3ccccc3)CC2)C(O)C1` (configuration not stated), the IC50 was > 1000 nM.
`OC1CN(C/C=C/I)CCC1N1CCN(c2ccccc2)CC1` (configuration not stated): the IC50 was > 100 nM.
With `C/C=C/CN1CCC(N2CCN(c3ccccc3)CC2)C(O)C1` (configuration not stated), the IC50 is 100 nM.
For the molecule `OC1CCN(Cc2ccc(Br)cc2)CC1N1CCN(c2ccccc2)CC1` (configuration not stated), the IC50 is > 100 nM.
With `OC1CN(Cc2ccccc2)CCC1N1CCN(c2ccccc2)CC1` (configuration not stated), the IC50 was determined as 57 nM.
Then `OC1CCNCC1N1CCN(c2ccccc2)CC1` (configuration not stated), with > 100 nM; and `OC1CCN(Cc2ccccc2)CC1N1CCN(c2ccccc2)CC1` (configuration not stated), with > 100 nM; and `OC1CNCCC1N1CCN(c2ccccc2)CC1` (configuration not stated), with 100 nM.
As for `OC1CN(Cc2ccc(Br)cc2)CCC1N1CCN(c2ccccc2)CC1` (configuration not stated), the concentration for half-maximal inhibition (IC50) was > 100 nM.
For `CCN1CCC(N2CCN(c3ccccc3)CC2)C(O)C1` (configuration not stated), the half-maximal inhibitory concentration (IC50) was > 1000 nM.
Next, `C=C(C)CN1CCC(O)C(N2CCN(c3ccccc3)CC2)C1` (configuration not stated): > 100 nM.
